We go through 23 compounds from patent US4016167A, “N-Substituted-6,8-dioxamorphinans” (Bristol-Myers Company, priority 1975, dated 1977).

For experiment [1], the system named is Straub Tail induced by oxymorphone. Briefly: Antagonism of Straub Tail induced by oxymorphone in mice (antagonist activity). Format: in vivo, mouse. To be noted: antagonism of Straub Tail induced by oxymorphone (2 mg./kg. s.c.) in 50 percent of mice, reported as free base; for ED50 Antagonist Activity, Oxymorphone Straub Tail: s.c., tartrate; for ED50: Mus musculus, sc. As for the experimental part:
^2 Antagonism of Straub Tail induced by oxymorphone (2 mg./kg. s.c.) in 50 percent of mice.

Experiment [2] has as its system phenylquinone induced writhings. Briefly: Phenylquinone writhing, mouse s.c. (agonist activity). In kind it is in vivo. Conditions: 50 percent reduction in number of phenylquinone induced writhings, tested as salts, reported as free base; for ED50 Agonist Activity, Phenylquinone Writhing: tartrate; for ED50: Mus musculus, sc. The source says: ^1 A 50 percent reduction in number of phenylquinone induced writhings (Siegmund, E.A. et al., Proc. Soc. Biol. & Med. 95, 729; 1957).

Experiment [3] deals with analgesic effect induced by morphine. The experiment is described as follows: Morphine antagonism, rat tail flick (antagonist activity). Conditions: sc, read-out: ED50 Antagonist Activity, Morphine Antagonism Rat Tail Flick.
Experiment [4] concerns agonist or antagonist activity in mice and rats. Briefly: Agonist and/or antagonist activity in mice and rats, overall assessment of the testing results. Conditions: conclusion from Table I. Format: in vivo.
The conditions of experiment [5]: prior art; cited from earlier work.

Counter-ions that a name gives are not always drawn.

On to `COc1ccc2c(c1)[C@]13CCN(CC4CC4)[C@H](C2)[C@@H]1OC(C)(C)OC3.O=C(O)C(O)C(O)C(=O)O` (single isomer, unassigned) [(+)-XIVd, (+)-17-Cyclopropylmethyl-7,7-dimethyl-3-methoxy-6,8-dioxamorphinan-(-)-hydrogen tartrate], for which the “ED50 Antagonist Activity, Oxymorphone Straub Tail” value in experiment [1] was more than 40 mg/kg. Besides, in experiment [2], the “ED50 Agonist Activity, Phenylquinone Writhing” value was more than 40 mg/kg.

One may read the ED50 as the dose that gives a 50% effect, or the effect in half of the subjects. For `CC1(C)OCC23CCN(CC4CC4)C(Cc4ccc(O)cc42)C3O1` (single isomer, unassigned) [(+)-XVd, (+)-17,Cyclopropylmethyl-7,7-dimethyl-3-hydroxy-6,8-dioxamorphinan (-) tartrate], the ED50 was more than 40 mg/kg in experiment [1] and more than 10 mg/kg in experiment [2].

`COc1ccc2c(c1)[C@]13CCN(CC4CC4)[C@H](C2)[C@@H]1OC(C)(C)OC3.O=C(O)C(O)C(O)C(=O)O` (single isomer, unassigned) [(-)-XIVd, (- )-17-Cyclopropylmethyl-7,7-dimethyl-3-methoxy-6,8-dioxamorphinan-(+ )-hydrogen tartrate]: the ED50 in experiment [3] was 1.19 mg/kg. Besides, the “ED50 Antagonist Activity, Oxymorphone Straub Tail” value in experiment [1] came out at 5 mg/kg. Further, the “ED50 Agonist Activity, Phenylquinone Writhing” value in experiment [2] was determined as 0.066 mg/kg. Also, the “agonist or antagonist activity (in words)” value in experiment [4] is recorded as “Outstanding”.

For `CC1(C)OC[C@]23CCN(CC4CC4)[C@H](Cc4ccc(O)cc42)[C@@H]3O1.O=C(O)C(O)C(O)C(=O)O` (single isomer, unassigned) [(-)-XVd, (- )-17-Cyclopropylmethyl-7,7-dimethyl-3-hydroxy-6,8-dioxamorphinan (+ ) tartrate], the 50% effective dose (ED50) in experiment [3] turned out to be 0.032 mg/kg; in experiment [1], 0.09 mg/kg; in experiment [2] it was 0.005 mg/kg. The “agonist or antagonist activity (in words)” value in experiment [4] is “Outstanding”.

Regarding `COc1ccc2c(c1)[C@]13CCN(C)[C@H](C2)[C@@H]1OCOC3` [IXa, 3-Methoxy-17-methyl-6,8-dioxamorphinan], the ED50 in experiment [1] is more than 20 mg/kg; in experiment [2] it was approximately 5 mg/kg.

Consider `COc1ccc2c(c1)[C@]13CCN(C)[C@H](C2)[C@]1(C)OCOC3` [IXc, 14β,17-Dimethyl-3-methoxy-6,8-dioxamorphinan], for which the ED50 in experiment [1] is more than 40 mg/kg; in experiment [2], 0.31 mg/kg.

Turning to `COc1ccc2c(c1)[C@]13CCN(C)[C@H](C2)[C@@H]1OC(C)(C)OC3` [IXd, 3-Methoxy-7,7,17-trimethyl-6,8-dioxamorphinan], the ED50 in experiment [1] was more than 40 mg/kg; in experiment [2] it was 0.63 mg/kg.

Consider `COc1ccc2c(c1)[C@]13CCN[C@H](C2)[C@@H]1OCOC3.O=C(O)/C=C/C(=O)O` [XIIa, 3-Methoxy-6,8-dioxamorphinan hydrogen fumarate], for which the ED50 in experiment [1] was more than 20 mg/kg; in experiment [2], 7.4 mg/kg.

In the case of `COc1ccc2c(c1)[C@]13CCN[C@H](C2)[C@]1(C)OCOC3.O=C(O)/C=C/C(=O)O` [XIIc, 3-Methoxy-14β-methyl-6,8-dioxamorphinan hydrogen fumarate], the 50% effective dose (ED50) was approximately 30 mg/kg in experiment [1] and 2 mg/kg in experiment [2].

For `COc1ccc2c(c1)[C@]13CCN(CC4CC4)[C@H](C2)[C@@H]1OCOC3.O=C(O)/C=C/C(=O)O` [XIVa, 17-Cyclopropylmethyl-3-methoxy-6,8-dioxamorphinan hydrogen fumarate], the figures for the 50% effective dose (ED50) in experiment [1] and in experiment [2] were approximately 15 mg/kg and 0.3 mg/kg, respectively. Moreover, in experiment [4], the “agonist or antagonist activity (in words)” value is listed as “Outstanding”.

`COc1ccc2c(c1)[C@]13CCN(CC4CCC4)[C@H](C2)[C@@H]1OCOC3` [XIVb, 17-Cyclobutylmethyl-3-methoxy-6,8-dioxamorphinan]: the ED50 is more than 40 mg/kg in experiment [1] and 2 mg/kg in experiment [2].

As to `COc1ccc2c(c1)[C@]13CCN(CC4CC4)[C@H](C2)[C@]1(C)OCOC3` [XIVc, 17-Cyclopropylmethyl-3-methoxy-14β-methyl-6,8-dioxamorphinan], the ED50 is more than 40 mg/kg in experiment [1] and approximately 5 mg/kg in experiment [2].

As to `COc1ccc2c(c1)[C@]13CCN(CC4CC4)[C@H](C2)[C@@H]1OC(C)(C)OC3.O=C(O)/C=C/C(=O)O` [XIVd, 17-Cyclopropylmethyl-7,7-dimethyl-3-methoxy-6,8-dioxamorphinan hydrogen fumarate], the median effective dose (ED50) in experiment [1] is approximately 30 mg/kg; in experiment [2], 0.29 mg/kg. For the same compound, the “agonist or antagonist activity (in words)” value in experiment [4] was “Outstanding”.

Turning to `COc1ccc2c(c1)[C@]13CCN(CC4CCC4)[C@H](C2)[C@@H]1OC(C)(C)OC3.O=C(O)/C=C/C(=O)O` [XIVe, 17-Cyclobutylmethyl-7,7-dimethyl-3-methoxy-6,8-dioxamorphinan hydrogen fumarate], the ED50 in experiment [1] was more than 40 mg/kg; in experiment [2], 6.1 mg/kg.

With `Oc1ccc2c(c1)[C@]13CCN(CC4CC4)[C@H](C2)[C@@H]1OCOC3` [XVa, 17-Cyclopropylmethyl-3-hydroxy-6,8-dioxamorphinan], the ED50 in experiment [3] amounted to 0.12 mg/kg; in experiment [1], 0.3 mg/kg; in experiment [2], 0.02 mg/kg. The “agonist or antagonist activity (in words)” value in experiment [4] is on record as “Outstanding”.

Take `O=C(O)/C=C/C(=O)O.Oc1ccc2c(c1)[C@]13CCN(CC4CCC4)[C@H](C2)[C@@H]1OCOC3` [XVb, 17-Cyclobutylmethyl-3-hydroxy-6,8-dioxamorphinan fumarate]: the ED50 is approximately 9 mg/kg in experiment [3], approximately 15 mg/kg in experiment [1] and 0.14 mg/kg in experiment [2]. In addition, the “agonist or antagonist activity (in words)” value in experiment [4] is “Outstanding”.

In the case of `C[C@@]12OCOC[C@@]13CCN(CC1CC1)[C@@H]2Cc1ccc(O)cc13.O=C(O)/C=C/C(=O)O` [XVc, 17-Cyclopropylmethyl-3-hydroxy-14β-methyl-6,8-dioxamorphinan hydrogen fumarate], the ED50 is 0.1 mg/kg in experiment [3], 0.63 mg/kg in experiment [1] and 0.064 mg/kg in experiment [2]. The “agonist or antagonist activity (in words)” value in experiment [4] was “Outstanding”.

For `CC1(C)OC[C@]23CCN(CC4CC4)[C@H](Cc4ccc(O)cc42)[C@@H]3O1.O=C(O)/C=C/C(=O)O` [XVd, 17-Cyclopropylmethyl-7,7-dimethyl-3-hydroxy-6,8-dioxamorphinan hydrogen fumarate], the ED50 turned out to be 0.096 mg/kg in experiment [3], 0.16 mg/kg in experiment [1] and 0.009 mg/kg in experiment [2]. The “agonist or antagonist activity (in words)” value in experiment [4] was “Outstanding”.

Take `CC1(C)OC[C@]23CCN(CC4CCC4)[C@H](Cc4ccc(O)cc42)[C@@H]3O1.O=C(O)/C=C/C(=O)O` [XVe, 17-Cyclobutylmethyl-7,7-dimethyl-3-hydroxy-6,8-dioxamorphinan hydrogen fumarate]: the values for the ED50 in experiment [1] and in experiment [2] were approximately 15 mg/kg and 0.04 mg/kg, respectively. Also, the “agonist or antagonist activity (in words)” value in experiment [4] is “Outstanding”.

For `CN1CC[C@]23COCO[C@H]2[C@H]1Cc1ccc(O)cc13.O=C(O)/C=C/C(=O)O` [Xa, 3-Hydroxy-17-methyl-6,8-dioxamorphinan fumarate], the ED50 is more than 40 mg/kg in experiment [1] and 0.3 mg/kg in experiment [2].

`CN1CC[C@]23COCO[C@@]2(C)[C@H]1Cc1ccc(O)cc13.O=C(O)/C=C/C(=O)O` [Xc, 14β,17-Dimethyl-3-hydroxy-6,8-dioxamorphinan fumarate]: the median effective dose (ED50) was approximately 40 mg/kg in experiment [1] and 0.04 mg/kg in experiment [2].

For the compound `CN1CC[C@]23COC(C)(C)O[C@H]2[C@H]1Cc1ccc(O)cc13` [Xd, 3-Hydroxy-7,7,17-trimethyl-6,8-dioxamorphinan], the ED50 in experiment [1] was more than 40 mg/kg; in experiment [2], 0.08 mg/kg.

Take `C[C@H]1[C@H]2Cc3ccc(O)cc3[C@]1(C)CCN2CC1CC1` [cyclazocine]: the “agonist and antagonist properties” value in experiment [5] is given as “both properties”.
